The values below are quoted from earlier work in patent publication US10813571B2, “Devices and methods for non-invasive monitoring of substance in a body” (TATA C[…] LIMITED, priority 2015, dated 2020).

For this data set the following is noted: in the user's (smoker's) body; as known in the art.

With `CN1CCCC1c1cccnc1` (stereo not shown) [nicotine], the “half-life of nicotine in the body (t1/2)” value was 1 to 2 h.
